Source: patent US20120149708A1, “MODULATORS OF VIRAL TRANSCRIPTION, AND METHODS AND COMPOSITIONS THEREWITH” (George Mason University, priority 2010, published 2012)

Assays:
Format in all cases: cell-based
[1] = system: HIV-1 (pNL4.3) in Jurkat T-cells; experiment: Reverse transcriptase assay of supernatants, pNL4.3 electroporated cells; conditions: Flavopiridol 200 nm, CR8 100 nm, CR8#13 50 nm, 48 hours
Protocol: (§1) Jurkat T-cell and promonocytic U937 cells were electroporated with 5 μg pNL4.3 followed the next day by drug treatment of Flavopiridol (200 nm), CR8 (100 nm) or CR8#13 (50 nm). Cell supernatants were collected at 48 hours post drug treatment. Viral supernatants (10 μl) were incubated in a 96-well plate with reverse transcriptase (RT) reaction mixture overnight at 37° C., and 10 μl of the reaction mix was spotted on a DEAE Filtermat paper, washed with 5% (w/v) Na2HPO4 followed by water wash, and then dried completely. RT activity was measured in a Betaplate counter.
(§2) For electroporations, Jurkat and U937 cells were resuspended at 3 million cells in 250 μl of RPMI. Five microgram of pNL4-3 was then added to the cell suspension. Cells were pulsed a single time at 210V, 800 μF, and low resistance. Electroporated cells were immediately transferred to RPMI-1640 with L-glutamine and Penicillin/Streptomycin with 10% (v/v) FBS and plated in 6 well plates. Twenty four hours-post electroporation, cells were treated with drugs for additional 48 hrs and harvested for RT analysis. RT assays were performed as described in ((Guendel et al. 2009; Easley et al. 2010).
(§3) The present inventors examined whether Formula I, or Formula II compounds were effective inhibiting viral transcription in cell lines infected with an HIV-1 construct. Thus, Jurkat T-cells and promonocytic U937 cells were transfected with pNL4.3 and then treated with Flavopiridol, CR8 and CR8#13. Similar to monocytes, the Dicer levels are low to undetectable in promonocytic cells (FIG. 6) and was detectable only when these cells had differentiated into macrophages with PMA treatment.
(§4) Following drug treatment cell supernatants were collected and processed for exogenous reverse transcriptase (RT) levels.

[2] = system: HIV-1 (pNL4.3) in promonocytic U937 cells; experiment: as above; conditions: Flavopiridol 200 nm, CR8 100 nm, CR8#13 50 nm, 48 hours
Protocol: as §1, §2, §3, §4

[3] = system: ACH2 cells (HIV-1 infected); experiment: Cell viability by trypan blue exclusion, 48 hours; conditions: HIV-1 infected
Protocol: (§5) TZM-bl cell lines were grown in Dulbecco's modified Eagle's medium supplemented with fetal bovine serum (FBS) (10%, v/v), 2 mM L-glutamine, and antibiotics (penicillin 100 U/ml, streptomycin […]) (cDMEM). HCT116 WT and HCT116 Dicer−/−cell lines were grown in McCoy's medium supplemented with FBS (10%, v/v), 2mM L-glutamine, and antibiotics (penicillin 100 U/ml, streptomycin […]). CEM, ACH2, Jurkat and U937 cells were grown in RPMI 1640 supplemented with FBS, L-glutamine, and antibiotics (penicillin 100 U/ml, streptomycin […]). All cell lines were maintained at 37° C. in 5% (v/v) CO2. […]
(§6) In brief, the inhibition studies were carried out as follows. HIV-1 infected cells ACH2, J1.1, OM10.1, U1 and uninfected CEM, Jurkat T-cells, and U937 were cultured in media. The appropriate inhibitor was added at a concentration of 10 μM. Cells were treated for 48 hours and cell viability was determined using trypan blue exclusion method. Results of such a screen for 19 inhibitors is shown in Table 1 where percent dead cells are indicated each drug tested.
(§7) Again HIV-1 infected and uninfected cells were treated with eighteen Formula I compounds at a drug concentration of 50 nm. Forty-eight hours after treatment, cytotoxicity was determined by trypan blue dye exclusion. Percent inhibition was calculated after obtaining the cell density for each well of the tissue culture plate at the end of 48 hrs.

[4] = system: Jurkat T-cells (uninfected); experiment: Cell viability by trypan blue exclusion, 48 hours
Protocol: as §5, §6, §7

HIV-1 LTR = experiment: ChIP assay on HIV-1 LTR in TSA treated TZM-bl cells; conditions: TZM-bl after TSA treatment
Protocol: Primers specific for the HIV-1 LTR were used to amplify DNA that was precipitated with each antibody. Lane 1 indicates basal levels of repressive markers on the HIV-1 LTR.
TZM-bl cells were treated with TSA for 7 days and processed for ChIP. For ChIP, approximately 5×10^6 cells were used per IP. ChIP assays were performed as previously described. PCR was performed using 0.1 μM of HIV-1 LTR primers (Klase et al, 2007; Guendel et al, 2009; Easley et al, 2010).
To observe the effect of drug on heterochrmatin formation, the present inventor used a ChIP assay. Briefly, TZM-bl cells were treated with TSA (FIGS. 16 and 17), and then treated with CR8#13.

HIV-1 LTR-CAT reporter = experiment: CAT assay of Tat-mediated transactivation in HCT116 WT and Dicer-/- cells; conditions: HCT116 WT (Dicer) versus Dicer-/-; 48 hrs; Flavopiridol, CR8#13, F07#13 100 nm, 9AA 1000 nm
Protocol: Six hours later, the transfected cells were treated with DMSO, Flavopirodol (100 nm), CR8#13 (100 nm), F07#13 (100 nm), and 9AA (1000 nm). Treated cells were incubated in complete DMEM for 48 hrs at 37° C. Cells were harvested and cell extracts were used for CAT analysis. One tenth the amount of HCT116 Dicer−/−extract compared to HCT116 WT was used for CAT analysis. […] The corresponding bar graphs in A and B show values that represent the percentage of conversion of the [14C] chloramphenicol substrate in the CAT assay.
Various cells lines were transfected with the HIV-1 LTRCAT plasmid and pc-Tat to initiate the LTR transcription, and subsequently subjected to various drug treatments. After 48 hrs, cells were lysed and CAT assays were performed as previously described (Guendel et al, 2009; Van Duyne et al, 2008; Easley et al, 2010).
To evaluate the role on microRNA machinery in inhibition of viral transcription activity, HCT116 colon carcinoma cell lines that either contained a WT Dicer (HCT116 WT) or lacked the Dicer protein (HCT116 Dicer-−/−) were first transfected with the HIV-1 LTR-CAT reporter construct. The HIV-1 LTR transcription was activated with pc-Tat and following incubation for 6 hours was treated with DMSO (negative control), Flavopiridol (positive control), CR8#13, F07#13, or 9AA.
Cells were harvested 48 hrs-post treatment and processed for CAT assays (FIGS. 3A and B). […] Based on this observation the inventors hypothesize that the microRNA machinery, Dicer and Drosha, plays an inhibitory role in HIV-1 transcription.

SMILES	RT levels in supernatant [1]	RT levels in supernatant [2]	inhibition at 10 µM ([3]; Human immunodeficiency virus 1, ACH-2, 48 h, 10 μM, 48 hours, read-out: % Inhibition (percent dead cells) ACH2)	inhibition at 10 µM ([4]; Homo sapiens, Jurkat, 10 μM, 48 hours, read-out: % Inhibition (percent dead cells) Jurkat)	Inhibition Percentage ACH2 ([3]; 50 nM, 48 hrs)	Inhibition Percentage Jurkat ([4]; 50 nM, 48 hrs)	recruitment of HDAC1, Ago2, Suv39H1 to the HIV-1 promoter (ChIP) (HIV-1 LTR)	inhibition of viral transcription (CAT) (HIV-1 LTR-CAT reporter)
CC[C@@H](CO)Nc1nc(NCc2ccc(-c3ccccn3)cc2)c2ncn(C(C)C)c2n1 [CR8]	effective at decreasing RT levels	not U937 monocytic cells	90%	50%				
CC(C)c1cnn2c(NCc3ccc(-c4ccccn4)cc3)nc(NC[C@H](O)CO)nc12.O=C(O)/C=C/C(=O)O [BJFP1154]	effective at decreasing RT levels	not U937 monocytic cells			− (1-5%)	− (1-5%)	re-recruitment of heterochromatin markers	inhibited viral transcription significantly better in cells that contained Dicer
